Each block holds one compound with its values, some of them ahead of it.
Columns and labels:
[1] = biological target: B. coagulans MA-13 β-galactosidase expressed in E. coli (BcGalB) (Bacillus coagulans MA-13); assay: SEC-MALS; S200 16/60 column with Mini DAWN Treos light scattering and QELS; 1 mg protein at 1 mg/ml; 0.5 ml/min; 100 mM sodium phosphate pH 8.0, 1 mM DTT; data not shown
BcGalB [2] = biological target: T1, BcGalB (Heyndrickxia coagulans, UniProt G2TH90); assay: release of ortho-nitrophenol at […] nm, non-linear regression; assay type: biochemical; details: 100 mM sodium citrate pH 5.0, 60 °C
T1 construct: recombinant in E. coli Rosetta(DE3) pLysS, pET28b, C-terminal His-tag, ~75 kDa monomer, hexamer in solution

BcGalB [3] = biological target: T1, BcGalB; assay: inhibition of ONP-β-gal hydrolysis; assay type: biochemical; details: 0-100 mM sugar, 5 min preincubation, standard assay 10 mM ONP-β-gal, 100 mM sodium citrate pH 5.0, 60 °C

stoichiometry N [1]: 6
Compound: B. coagulans MA-13 β-galactosidase expressed in E. coli (BcGalB) (enzyme)

Km (BcGalB [2]): 723 µM
Compound: O=[N+]([O-])c1ccccc1O[C@@H]1O[C@H](CO)[C@H](O)[C@H](O)[C@H]1O [ONP-β-gal]

retained activity at the highest concentration (BcGalB [3]; highest concentration 100 mM, at least 66% retained): > 66%
Compound: OC1OC[C@@H](O)[C@H](O)[C@H]1O (stereo partly drawn) [D-xylose]

retained activity at the highest concentration (BcGalB [3]): > 66%
Compound: OC1OC[C@@H](O)[C@@H](O)[C@@H]1O (stereo partly drawn) [D-arabinose]

Source: paper PMC7977261, “Prebiotic properties of Bacillus coagulans MA-13: production of galactoside hydrolyzing enzymes and characterization of the transglycosylation properties of a GH42 β-galactosidase” (Microbial Cell Factories, 2021)
